From patent US6916793B2, “Selenium-containing pro-drugs for cancer therapy” (priority 1999, dated 2005)
Where two headings read alike, the source gives them in different places.

Tests used:
[1] = test system: keratinocytes; details: at the concentrations studied; cited from earlier work
[2] = test system: A549 cells; assay: Combined effect of SeMet with doxorubicin, cell survival; format: cell-based, human; details: A549 transfected with rAd-MET, 10% FBS
Protocol: In a similar experiment, A549 cells that had been transfected with rAd-MET were cultured in RPMI with 10% FBS in the presence and absence of 4 μM SeMet and with and without 0.4 μM doxorubicin. In the presence of doxorubicin alone, a 75% cell survival rate was obtained; when SeMet was present alone, a 60% cell survival rate was obtained.

[3] = test system: OVCAR-8; assay: MTT assay, serial dilutions of SeMet on transduced cells; format: cell-based, human; details: for IC50: Homo sapiens
Protocol: (§1) Cells (4×10^3) of various tumor lines were seeded onto 96-well plates. After 24 hours, serial dilutions of the methioninase expressing vector (rAd-MET) or a control vector containing no methioninase encoding nucleotide sequence (rAd) were added to the wells with and without 20 μM of selenomethionine (SeMet) (20 μM). After incubating the plates for three (3) days, the medium was replaced with 0.5 mg/ml MTT for two (2) hours and analyzed using a microplate reader (BioRad), in a standard MTT assay. Results were recorded as percentage of surviving cells.
(§2) The cell lines were also evaluated for their response to varying concentrations of SeMet. In these protocols, the cells were seeded as above into 96-well plates and infected with 4×10^5 pfu of rAd-MET or control rAd. After 24 hours, serial dilutions of SeMet were added and three (3) days later cytotoxicity was evaluated with the MTT assay as described in Example 2. The results are shown for OVCAR-8 cells in FIG. 6.

[4] = test system: A549; assay: as above; format: cell-based; details: Homo sapiens
Protocol: as §1, §2

[5] = test system: BxPC-3; assay: as above; format: cell-based; details: Homo sapiens
Protocol: as §1, §2

[6] = test system: EKVX; assay: as above; format: cell-based; details: Homo sapiens
Protocol: as §1, §2

[7] = test system: Hep-2; assay: as above; format: cell-based; details: Homo sapiens
Protocol: as §1, §2

[8] = test system: MIA PaCa-2; assay: as above; format: cell-based; details: Homo sapiens
Protocol: as §1, §2

[9] = test system: A549 human lung cancer cells; assay: Combined variation of rAd-MET and SeMet, percentage of surviving cells; format: cell-based
Protocol: The experiments described in Examples 2 and 3 were performed on A549 human lung cancer cells using varying concentrations of SeMet from 0-40 μM and of virus rAd-MET titer of 0-8×10^5 pfu using rAd as a control. Percentage of surviving cells was again used as an index of efficacy.

[10] = test system: A549 cells; assay: ROS generation, lucigenin-dependent chemiluminescence; format: cell-based, human; details: for chemiluminescence relative to control: 30 minutes
Protocol: It is believed that selenium cytotoxicity is mediated by generation of reactive oxygen species (ROS). This can be measured by standard techniques which employ lucigenin-dependent chemiluminescence as described by Yan, L., et al., Biochem Pharmacol (1993) 45:429-437, cited above.
A549 cells were transduced with rAd-MET at MOI of 50, 24 hours before measurement. The cells (1×10^6) were incubated in 1 ml RPMI in the presence of SeMet with or without 10 units of superoxide dismutase (SOD) for 30 minutes. Lucigenin (50 μg) was added to the cell suspension just prior to measurement and integrated chemiluminescence was measured for 10 seconds, three times, using a TD21 luminometer (Turner Designs).

[11] = test system: A549 cells; assay: Combined effect of SeMet with BCNU, cell survival; format: cell-based, human; details: A549 transfected with rAd-MET, 20% FBS
Protocol: A549 cells that had been transfected with rAd-MET were cultured in RPMI with 20% FBS with and without 8 μM SeMet. In each case, duplicate samples were cultured without BCNU and in the presence of 300 μM BCNU. Cell survival was determined […]. With no treatment, 100% of the cells survived; in the presence of SeMet alone, 80% of the cells survived. In the absence of SeMet, but in the presence of BCNU, 55% cell survival was obtained; in the presence of 8 μM SeMet and 300 μM BCNU, less than 10% of the cells survived. Thus, SeMet dramatically enhances the effect of BCNU.

[12] = test system: human tumor cell lines; assay: MTT assay, summary statements over all tumor cell lines; format: cell-based; details: virtually all cell lines
Protocol: as §1
The cell lines tested were human cancer cell lines OVCAR-8 (ovarian cancer), A549 and EKVX (lung cancer), Hep-2 (head and neck cancer), MIA PaCa-2 and BxPC-3 (pancreatic cancer), human rhabdomyosarcoma cell line A204 and human prostate cell line PC-3. The results with respect to the OVCAR-8 cell line and cell lines A204, and PC-3 are shown in FIGS. 2, 3 and 4 in X/Y graphs; FIG. 5 is a bar graph of the results with respect to the A549 cell line.
as §2, with “The results are shown for OVCAR-8 cells in FIG. 6.” left out

N[C@@H](C[Se][Se]C[C@H](N)C(=O)O)C(=O)O [selenocystine]
cytotoxicity in keratinocytes [1]: cytotoxic
induction of apoptosis in keratinocytes [1]: induced apoptosis

NCC[Se][Se]CCN [selenocystamine]
cytotoxicity in keratinocytes [1]: cytotoxic
induction of apoptosis in keratinocytes [1]: induced apoptosis

COc1cccc2c1C(=O)c1c(O)c3c(c(O)c1C2=O)C[C@@](O)(C(=O)CO)C[C@@H]3O[C@H]1C[C@H](N)[C@H](O)[C@H](C)O1 [doxorubicin, reference compound]
cell survival rate ([2]; 0.4 μM doxorubicin alone): 75%

O=[Se](O)O [selenite]
cytotoxicity in keratinocytes [1]: cytotoxic
induction of apoptosis in keratinocytes [1]: induced apoptosis

C[Se]CC[C@H](N)C(=O)O [SeMet, selenomethionine]
IC50 ([3]; OVCAR-8, read-out: SeMet IC50 (μM)): 224 µM
IC50 ([3]; OVCAR-8, read-out: SeMet IC50 (μM), OVCAR-8 transduced with Control-rAd 4×10^5 pfu): 170 µM
IC50 ([3]; OVCAR-8, read-out: SeMet IC50 (μM), OVCAR-8 transduced with rAd-MET 4×10^5 pfu): 0.59 µM
lowering of IC50 for SeMet in the presence of rAd-MET as compared to control rAd ([3]; OVCAR-8 cells, FIG. 6): lowered over a thousandfold
IC50 ([4]; A549, read-out: SeMet IC50 (μM)): 486 µM
IC50 ([4]; A549, read-out: SeMet IC50 (μM), A549 transduced with Control-rAd 4×10^5 pfu): 327 µM
IC50 ([4]; A549, read-out: SeMet IC50 (μM), A549 transduced with rAd-MET 4×10^5 pfu): 0.5 µM
IC50 ([5]; BXPC-3, read-out: SeMet IC50 (μM)): 312 µM
IC50 ([5]; BXPC-3, read-out: SeMet IC50 (μM), BxPC-3 transduced with Control-rAd 4×10^5 pfu): 223 µM
IC50 ([5]; BXPC-3, read-out: SeMet IC50 (μM), BxPC-3 transduced with rAd-MET 4×10^5 pfu): 3.38 µM
IC50 ([6]; read-out: SeMet IC50 (μM)): 1360 µM
IC50 ([6]; read-out: SeMet IC50 (μM), EKVX transduced with Control-rAd 4×10^5 pfu): 686 µM
IC50 ([6]; read-out: SeMet IC50 (μM), EKVX transduced with rAd-MET 4×10^5 pfu): 1.66 µM
IC50 ([7]; HEp-2, read-out: SeMet IC50 (μM)): 411 µM
IC50 ([7]; HEp-2, read-out: SeMet IC50 (μM), Hep-2 transduced with Control-rAd 4×10^5 pfu): 387 µM
IC50 ([7]; HEp-2, read-out: SeMet IC50 (μM), Hep-2 transduced with rAd-MET 4×10^5 pfu): 1.66 µM
IC50 ([8]; MIA PaCa-2, read-out: SeMet IC50 (μM)): 422 µM
IC50 ([8]; MIA PaCa-2, read-out: SeMet IC50 (μM), MIA PaCa-2 transduced with Control-rAd 4×10^5 pfu): 338 µM
IC50 ([8]; MIA PaCa-2, read-out: SeMet IC50 (μM), MIA PaCa-2 transduced with rAd-MET 4×10^5 pfu): 3.86 µM
toxicity of selenomethionine itself ([9]; A549, control vector, SeMet 20-40 μM, FIG. 7): slight toxicity
cells survived ([9]; A549, rAd-MET 4×10^5, SeMet 2.5 μM): 50%
cell survival ([9]; A549, rAd-MET 8×10^5 pfu, SeMet 5 μM or more): substantially no cells survived
viability ([9]; A549, rAd-MET 5,000 pfu, SeMet 20-40 μM, FIG. 8): drastically reduced viability
effect of superoxide dismutase on SeMet-dependent chemiluminescence ([10]; 10 units SOD, 160 μM and 40 μM SeMet): inhibited by SOD
chemiluminescence relative to control ([10]; A549 transduced with rAd-MET MOI 50, 40 μM SeMet): 20 times
chemiluminescence relative to control ([10]; A549 transduced with rAd-MET MOI 50, 160 μM SeMet): over 100 times
cell survival ([11]; 8 μM SeMet alone): 80%
cell survival rate ([2]; 4 μM SeMet alone): 60%
change in IC50 for SeMet in the presence of rAd-MET [12]: dramatic decrease in IC50
cytotoxicity in keratinocytes [1]: not cytotoxic
induction of apoptosis in keratinocytes [1]: did not induce cellular apoptosis

O=NN(CCCl)C(=O)NCCCl [BCNU, reference compound]
cell survival ([11]; 300 μM BCNU, no SeMet): 55%
